Tests used:
[1] = molecular target: T1, Met kinase (Homo sapiens, UniProt P08581); test: Met kinase flashplate method (enzyme); format: biochemical; set-up: 6His (N); purchased Upstate 14-526; host or cells: Sf21 insect cells (S. frugiperda), baculovirus; conditions: Met kinase inhibition
Source text: According to the manufacturer's data (Met, active, Upstate, catalogue No. 14-526), Met kinase is expressed for the purposes of protein production in insect cells (Sf21; S. frugiperda) and subsequent affinity-chromatographic purification as “N-terminal 6His-tagged” recombinant human protein in a baculovirus expression vector.
Flashplate Method (Met Kinase)
The test plates used are 96-well Flashplate® microtitre plates from Perkin Elmer (Cat. No. SMP200). The components of the kinase reaction described below are pipetted into the assay plate. The Met kinase and the substrate poly Ala-Glu-Lys-Tyr, (pAGLT, 6:2:5:1), are incubated for 3 hrs at room temperature with radioactively labelled ^33P-ATP in the presence and absence of test substances in a total volume of 100 μl. The reaction is terminated using 150 μl of a 60 mM EDTA solution. After incubation for a further 30 min at room temperature, the supernatants are filtered off with suction, and the wells are washed three times with 200 μl of 0.9% NaCl solution each time. The measurement of the bound radioactivity is carried out by means of a scintillation measuring instrument (Topcount NXT, Perkin-Elmer).
The full value used is the inhibitor-free kinase reaction. This should be approximately in the range 6000-9000 cpm. The pharmacological zero value used is staurosporin in a final concentration of 0.1 mM. The inhibitory values (IC50) are determined using the RS1_MTS program.
Kinase reaction conditions per well:
10 μl of substance to be tested in assay buffer with 10% of DMSO
10 μl of ATP (final concentration 1 μM cold, 0.35 μCi of ^33P-ATP)
50 μl of Met kinase/substrate mixture in assay buffer;
• (10 ng of enzyme/well, 50 ng of pAGLT/well) • Solutions used: • Assay buffer: • 50 mM HEPES • 3 mM magnesium chloride • 3 μM sodium orthovanadate • 3 mM manganese(II) chloride • 1 mM dithiothreitol (DTT) • pH=7.5 (to be set using sodium hydroxide) • Stop solution: • 60 mM Titriplex III (EDTA) • ^33P-ATP: Perkin-Elmer; • Met kinase: Upstate, Cat, No. 14-526, Stock 1 μg/10 μl; spec. activity 954 U/mg; • Poly-Ala-Glu-Lys-Tyr, 6:2:5:1: Sigma Cat. No. P1152 In-Vivo Tests
Target sequence in this assay (P08581 974-1390 limits assumed): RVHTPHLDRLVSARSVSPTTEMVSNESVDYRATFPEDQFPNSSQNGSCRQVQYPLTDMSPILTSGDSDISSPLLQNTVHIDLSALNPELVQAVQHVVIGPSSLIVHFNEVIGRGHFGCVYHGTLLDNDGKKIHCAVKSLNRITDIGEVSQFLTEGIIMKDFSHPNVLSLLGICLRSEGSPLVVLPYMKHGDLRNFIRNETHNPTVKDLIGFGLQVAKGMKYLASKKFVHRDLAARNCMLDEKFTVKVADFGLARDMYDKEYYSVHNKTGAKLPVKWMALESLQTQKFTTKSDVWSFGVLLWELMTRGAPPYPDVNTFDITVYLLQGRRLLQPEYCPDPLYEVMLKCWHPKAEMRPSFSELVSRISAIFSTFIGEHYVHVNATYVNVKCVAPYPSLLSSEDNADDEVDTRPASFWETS

[2] = molecular target: T1, Met kinase; test: Met kinase inhibition (cell); format: cell-based
Target sequence in this assay (P08581 25-1390): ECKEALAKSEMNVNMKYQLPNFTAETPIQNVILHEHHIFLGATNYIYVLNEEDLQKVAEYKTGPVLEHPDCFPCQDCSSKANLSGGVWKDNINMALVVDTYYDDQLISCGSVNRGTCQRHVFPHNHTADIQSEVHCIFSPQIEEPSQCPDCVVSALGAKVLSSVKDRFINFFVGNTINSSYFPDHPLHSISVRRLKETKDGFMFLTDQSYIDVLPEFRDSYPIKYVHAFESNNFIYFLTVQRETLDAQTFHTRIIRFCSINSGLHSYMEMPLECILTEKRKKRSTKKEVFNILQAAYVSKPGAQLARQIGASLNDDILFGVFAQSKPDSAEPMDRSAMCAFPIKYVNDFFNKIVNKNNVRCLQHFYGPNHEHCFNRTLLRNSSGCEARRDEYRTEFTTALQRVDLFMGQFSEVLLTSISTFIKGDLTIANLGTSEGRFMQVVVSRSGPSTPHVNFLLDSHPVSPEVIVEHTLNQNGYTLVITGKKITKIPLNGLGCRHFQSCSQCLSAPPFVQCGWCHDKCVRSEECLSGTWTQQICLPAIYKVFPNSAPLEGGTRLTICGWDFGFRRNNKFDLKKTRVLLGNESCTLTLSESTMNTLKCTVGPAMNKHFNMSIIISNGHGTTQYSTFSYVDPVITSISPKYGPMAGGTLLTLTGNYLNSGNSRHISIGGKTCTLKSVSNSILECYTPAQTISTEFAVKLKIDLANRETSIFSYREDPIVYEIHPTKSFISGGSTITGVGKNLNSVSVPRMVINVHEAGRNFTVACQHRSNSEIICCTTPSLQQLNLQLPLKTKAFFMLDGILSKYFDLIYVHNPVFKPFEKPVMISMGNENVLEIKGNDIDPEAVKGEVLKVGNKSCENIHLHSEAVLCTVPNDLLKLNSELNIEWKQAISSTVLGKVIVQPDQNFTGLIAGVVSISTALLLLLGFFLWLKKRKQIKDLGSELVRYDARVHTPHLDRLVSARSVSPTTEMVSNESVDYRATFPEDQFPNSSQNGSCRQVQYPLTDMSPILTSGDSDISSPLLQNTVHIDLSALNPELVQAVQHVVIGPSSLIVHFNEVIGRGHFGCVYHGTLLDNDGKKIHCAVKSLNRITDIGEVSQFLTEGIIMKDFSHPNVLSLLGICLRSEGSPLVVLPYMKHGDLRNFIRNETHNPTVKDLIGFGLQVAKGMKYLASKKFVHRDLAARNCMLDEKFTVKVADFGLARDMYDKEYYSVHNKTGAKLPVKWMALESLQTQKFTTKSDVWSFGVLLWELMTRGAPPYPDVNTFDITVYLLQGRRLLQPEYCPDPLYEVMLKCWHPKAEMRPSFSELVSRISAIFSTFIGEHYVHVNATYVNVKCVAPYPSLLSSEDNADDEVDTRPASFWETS

| SMILES | IC50 [1] [nM] | IC50 [2] [nM] |
| --- | --- | --- |
| COCCOc1cnc(-c2cccc(Cc3nnc4ccc(C(=O)O)nn34)c2)nc1 [A38, 3-{3-[5-(2-methoxyethoxy)pyrimidin-2-yl]benzyl}-1,2,4-triazolo[4,3-b]pyridazine-6-carboxylic acid] | 1 to 100 | 100 to 10000 |
| CCCNC(=O)c1ccc2nnc(Cc3cccc(-c4ncc(OCCOC)cn4)c3)n2n1 [A39, N-propyl-3-{3-[5-(2-methoxyethoxy)pyrimidin-2-yl]benzyl}-1,2,4-triazolo[4,3-b]pyridazine-6-carboxamide] | 1 to 100 | 100 to 10000 |
| COCCOc1cnc(-c2cccc(Cc3nnc4ccc(C(=O)N(C)C)nn34)c2)nc1 [A40] | 1 to 100 | 100 to 10000 |
| COCCOc1cnc(-c2cccc(Cc3nnc4ccc(C(=O)NCCO)nn34)c2)nc1 [A41] | 1 to 100 | > 10000 |

Further lines, results first:

| IC50 [1] [nM] | IC50 [2] [nM] | SMILES |
| --- | --- | --- |
| 1 to 100 | 1 to 100 | COc1ccc2nnc(C(F)(F)c3cccc(-c4ncc(-c5cnn(CCN6CCCC6)c5)cn4)c3)n2n1 [A20] |
| 1 to 100 | 100 to 10000 | CNC(=O)c1ccc2nnc(Cc3cccc(-c4ncc(OCCOC)cn4)c3)n2n1 [A28] |

From patent US8426397B2, “3 (3-pyrimidin-2-ylbenzyl)-1,2,4-triazolo[4,3-b]pyridazine derivatives” (Merck Patent Gesellschaft mit Beschränkter Haftung, priority 2008, dated 2013)
